The source of these data is patent publication US5116818A, “Method and kit for contraception with GnRH-antagonist” (Medical College of Hampton Roads, priority 1990, dated 1992).

In this experiment the test system is cynomolgus monkeys (Macaca fascicularis). Put plainly: Study III: once-weekly Nal-Glu GnRH-antagonist plus 12 days of norgestimate, three treatment cycles. It counts as in vivo. The protocol: STUDY III. In this study, which is reported in more detail in Contraception, June, 1990, Vol. 31, No. 6, pp. 623-631, six regularly cycling adult female cynomolgus monkeys (Macaca fascicularis) were housed in individual cages in a controlled environment and checked daily for menstrual flow. Each primate underwent a study entry control menstrual cycle in which alternate day blood samples were taken (under ketamine anesthesia, 10 mg/kg, im) to verify maturation of the dominant follicle, presumed ovulation, and corpus luteum function. The experimental design is depicted in FIG. 1. On menstrual cycle days 2, 9, 16, and 23 (onset of menses =Day 1) three of the monkeys were injected sc with 0.1 mg/kg GnRH-antagonist ([Ac-D2 Nal^1, 4ClDPhe^2, D3 Pal^3, Arg^5,DGlu^6 (AA), DAla^10 ]- GnRH; Nal-Glu) in saline. This dose was selected based on dose-response findings reported in Fertil Seril 1987; 48:480-485. On cycle days 15 to 26, each female was administered 25 μg norgestimate/day orally. This treatment regimen (once-weekly GnRH-antagonist plus 12 days of progestin) was repeated for 2 additional cycles (84 days total). Two of the treated monkeys were ovariectomized at the end of the third treatment cycle to evaluate ovarian follicular morphology. […] Three control monkeys received saline injections and blank (progestin placebo) capsules according to the same regimen. Serum samples were assayed by RIA for estradiol, progesterone, LH, and FSH.

A value given as a limit tells only on which side of the number the result lay.

As to `C#C[C@]1(OC(C)=O)CC[C@H]2[C@@H]3CCC4=CC(=NO)CC[C@@H]4[C@H]3CC[C@@]21CC` (mixture of isomers) [norgestimate], the transformation of endometrium result (sequential norgestimate, histological sections on day 26) is recorded as “effectively transformed proliferative to secretory endometrium”.

As for “[Ac-D2 Nal^1, 4ClDPhe^2, D3 Pal^3, Arg^5,DGlu^6 (AA), DAla^10 ]- GnRH [Nal-Glu]”, the “completion of follicular maturation, ovulation and corpus luteum function” value (0.1 mg/kg sc on cycle days 2, 9, 16, 23, judged by serum LH, E2 and P levels) is “effectively blocked”. The “LH surges or serum progesterone rises” value (during the intermittent regimen) was “NO LH surges or serum progesterone rises were detected”. Also, the serum progesterone (during the treatment cycles) was under 0.1 ng/mL.
